Measurements as given in patent publication US9897592B2, “Methods for identifying arthropod repellents and attractants, and compounds and compositions identified by such methods” (The Regents of the University of California, priority 2013, dated 2018).

Assays:
[1] = test system: cpA neuron; assay: Single-sensillum recording: activation of cpA neuron by odorants; type: cell-based, Aedes aegypti; conditions: A. aegypti cpA, 0.5-s pulses, odorants 10^−2 in paraffin oil or water, solvent response subtracted
Method: FIG. 3b depicts representative traces and mean responses of the A. aegypti cpA neuron to 0.5-s pulses of 138 predicted compounds screened using single-sensillum recordings, in which odorants were diluted to 10^−2 in paraffin oil or water, and responses to solvent have been subtracted, n=2-6, and error bars are s.d.
FIG. 5f is a bar graph illustrating the mean responses of the A. aegypti cpA neuron to 0.5-s pulses of 22 newly predicted compounds screened as in FIG. 3b, where salmon bars correspond to odorants found in human odor, odorants were diluted to 10^−2 in paraffin oil or water, and responses to solvent have been subtracted, and n=2-5.
Adult female A. aegypti (Linnaeus 1762) (Rockefeller strain) A. gambiae sensu stricto Giles 1902 (G3 strain), or C. quinquefasciatus Say 1823 were tested 3-12 days post-emergence with single-sensillum extracellular recordings. Chemicals were obtained from Sigma-Aldrich at the highest purity (typically >99%) and were dissolved in paraffin oil or water. […] Response to clean beads was subtracted from the results reported. Only sensilla with cpA activity of <20 spikes s^−1 to negative control were considered for analysis.
(§1) CpA-off and sham treated mosquitoes were pre-treated for 3 min in an upended 1 L glass dish in which 100 μl of fresh butyryl chloride (1%) or paraffin oil was allowed to vaporize for 10-20 min. The odor delivery system for different screens is shown in FIG. 7b; solvent responses during the same recording session were subtracted. Inhibition screen was tested. For the ultra-prolonged activator the 3-s stimulus was delivered from a 10 ml disposable pipette using a CS-55 stimulus controller (Syntech), CO2 was delivered, and responses to subsequent odor stimuli were calculated by subtracting baseline activity 1 s prior to each stimulus. When responses to repeated pulses of cyclopentanone and CO2 were compared, baseline activity between seconds 5 and 6 following each stimulus was subtracted. Spike counting was done manually or with Igor Pro6.2 (Wavemetrics) with the Neuromatic v2.00 macro (by Jason Rothman), and peak-to-peak spike amplitudes for FIG. 8 were analysed in Clampfit 10.3 (Molecular Devices).
From the large list of cpA receptor ligands predicted from Example 3 above, 138 compounds were selected based on desirable criteria for application such as smell, presence in natural sources, human safety profile, and cost to procure. These compounds were tested individually using single-sensillum electrophysiology on the cp sensillum of female A. aegypti, according to the procedure described in Example 1 above.

[2] = test system: cpA neuron; assay: Inhibition screen: odorant overlaid on 0.15% CO2 stimulus, cpA response; type: cell-based, Aedes aegypti; conditions: for % Inhibition: 1-s odorant stimulus (10^−2) in the middle of a 3-s 0.15% CO2 stimulus, vs solvent overlay
Method: Percent inhibition was calculated by comparing mean odorant overlay responses to mean solvent overlay responses, and error bars are s.d.
as §1

[3] = test system: C. quinquefasciatus; assay: Semi-field two-choice greenhouse trapping; type: in vivo, Culex quinquefasciatus
From the text: FIG. 4g is a schematic of two-choice greenhouse experiments with two counterflow geometry traps, in which mosquitoes were trapped overnight in odorant-baited and solvent (water)-baited traps.
Semi-field trapping: Two modified greenhouses at the Agricultural Experiment Station at the University of California, Riverside, were used as described previously^2, with modifications. Fifty laboratory-reared, mated, non-blood fed female C. quinquefasciatus aged 8-14 days and starved for 24 hrs were released each evening around 5 pm and traps collected at ˜7 am. Counter flow geometry traps baited with CO2 (250 ml min^−1, ˜670 mmol/hr) odorant were used as described^2, with modifications. Odorant solutions in water were dispensed from 20 cm long gauze wicks protruding from uncapped 50 ml tubes beneath the trap outflow. For each trial, one baited trap and one control trap (water-filled) were placed in each of two greenhouses (FIG. 4g). For two-choice CO2 trials, water was placed under both traps. For two-choice ethyl pyruvate trials, both traps expelled CO2, and one trap also released ethyl pyruvate from an open 2.8×7 cm glass vial. Since ethyl pyruvate has very low volatility pure compound was used to generate ˜1.7 mmol/hr. An empty vial was placed under control traps. Treatment position and trap were alternated across trials. Volume of solution lost from tubes containing 5%, 10%, or 20% cyclopentanone were measured after each trial and the average loss of molecules calculated respectively for 3 concentrations as (±s.d.) of 0.7 (±0.1), 1.7 (±0.4), and 3.8 (±0.3) mmol/hr, respectively. Preference index=(# mosquitoes in odor-baited trap−# mosquitoes in control trap)/(total # mosquitoes caught in both traps).
The efficacy of cyclopentanone as a lure was tested using traps in controlled semi-field experiments with C. quinquefasciatus, a mosquito present in Southern California, where the experiments took place. 50 female mosquitoes were released overnight in a modified greenhouse that contained two counter-flow geometry mosquito traps (FIG. 4g). One trap was baited with an evaporative lure of cyclopentanone diluted in water, and the second trap was baited with water alone.

[4] = test system: cpA neuron; assay: Ultra-prolonged activation: cpA firing after 3-s odorant exposure; type: cell-based, Aedes aegypti
From the text: FIG. 3d depicts representative traces from the A. aegypti cp sensillum to 1-s pulses of 0.15% CO2 prior to and following a 3-s exposure to either solvent (paraffin oil) or (E)-2-methylbut-2-enal (10^−1).
FIG. 3e is a graph illustrating the cpA baseline activity in the 1 s prior to each stimulus is elevated following exposure to odorant, where error bars are s.e.m.
FIG. 3f is a bar graph illustrating the mean responses of the cpA neuron to 1-s pulses of 0.15% CO2, calculated by subtracting the 1 s of the baseline activity prior to each stimulus, where n=5-6 individuals, analysed by t-test, ***p<0.001, and error bars are s.e.m.
as §1

[5] = test system: CO2 receptor; conditions: cited from earlier work
[6] = test system: A. aegypti; assay: Wind tunnel assay of attraction to human foot odor beads; type: in vivo, Aedes aegypti
Method: FIG. 2h is a schematic of wind tunnel assay, where human odor was provided by a dish of glass beads that had been worn in socks for ˜6 hrs (Person 1), and flight behaviour of individual female mosquitoes was recorded for 5 min or until they landed on the beads.
FIGS. 2i-k are bar graphs illustrating the proportion of butyryl chloride pre-exposed and sham treated mosquitoes presented with beads with no odor or foot odor that landed on beads (FIG. 2i), that took off from the release cage (FIG. 2j), and that did take off that succeeded in landing on the beads (FIG. 2k), where n=20-23 individuals per condition, analysed by one-tailed proportion Z-test, *p<0.05, **p<0.01, ***p<0.001, and error bars are s.e.m. All odorants except CO2 were dissolved in paraffin oil at 10^−2 except where indicated. […]

[7] = test system: antennal neurons; assay: Electroantennogram (EAG) after butyryl chloride treatment; type: cell-based, Aedes aegypti
Method: FIG. 2e is a graph illustrating averaged traces and FIG. 2f is a graph illustrating mean electroantennograph (EAG) responses to air puffed over glass beads laden with foot odor or a clean bead control, where EAG peaks are normalized to 3-methyl-1-butanol response, n=9, and analysed by t-test.
FIG. 9d illustrates EAG responses normalized to the reference odor 3-methyl-1-butanol. No significant differences due to treatment (n=9; t-test).
Standard whole-antenna recordings were performed with minor modifications. Traces were averaged using Clampfit software (Molecular Devices), and responses were normalized to interspersed pulses of a reference odorant, 3-methyl-1-butanol, according to the formula: Raw response (mV)/(ax+by), where a and b are the responses (mV) to the immediately previous and subsequent reference odor stimulation, respectively, and x and y are the proportion of time elapsed between stimuli (so that x+y=1).

[8] = test system: A. aegypti; assay: Short-range attraction to heat and humidity; type: in vivo, Aedes aegypti; conditions: after pre-exposure; control for general deficits
Method: FIG. 9f illustrates mosquitoes' tendency to rest at the top surface of the cage increased in the presence of a warm, wet stimulus. […] No significant differences due to treatment (n=6 replicates; Mann-Whitney rank-sum test).
Ten 6-day-old female A. aegypti were starved 30 hrs in a 7 cm diameter×˜5 cm high cage with wire mesh on one side and placed inside an aquarium. After 5 min a beaker with 750 ml warm water (40° C.) and filter paper soaked with 400 μl water were placed 5 mm above the cage (FIG. 9e). CpA-off and sham treated mosquitoes were video-recorded and counted at 30 s intervals.

[9] = test system: cpA neuron; assay: Butyryl chloride pre-exposure (cpA-off): cp sensillum responses to CO2, skin odorants, foot odor; type: cell-based, Aedes aegypti
From the text: FIG. 2b depicts representative cp responses to 0.5-s pulses of indicated odorants after a 3-min pre-exposure to butyryl chloride (10^−2) (cpA-off) or solvent (sham treatment).
FIG. 2c is a bar graph illustrating the mean odorant-evoked responses of the cpA neuron in cpA-off and sham treated mosquitoes, and FIG. 2d is a bar graph illustrating the combined odor-evoked responses of two neighbouring neurons, cpB and cpC, where for both of these figures, n=6 individuals, 1-4 sensilla surveyed per individual; analysed by nested ANOVA, and baseline refers to cpA activity in the presence of room air.
as §1

[10] = test system: A. aegypti; assay: Hand-in-cage repellency assay; type: in vivo, Aedes aegypti; conditions: mesh treated 500 μl, 10% in acetone
From the text: FIG. 4c depicts representative images (left) of hand-in-cage assay mesh window and a graph (right) illustrating the mean number of mosquitoes on the netting at the indicated time points for ethyl pyruvate-treated or solvent-treated netting. n=8 each.
Forty 4-10-day-old female A. aegypti were starved 24 hrs and released in a 30×30 cm cage with a glass top, and trials commenced between 1400 and 1700 hrs. A human hand wearing a nitrile glove (Sol-vex) with a 7×6 cm window covered by two layers of fine polyester mesh (BioQuip, mesh size 26×22 holes per in^2) held in place by magnetic spacers, was inserted into the cage. The lower mesh was 1.5 mm above, and upper mesh was 6 mm above the hand. While skin emanations passed freely through the mesh window, the hand was protected from contact with mosquitoes and treated mesh. The outside mesh was treated with ethyl pyruvate (500 μl, 10% in acetone) or solvent. After letting solvent evaporate the glove was assembled. […] Trials were video recorded and mosquitoes on the mesh were counted every 15 s.
An arm-in-cage repellency assay was used in this Example using gloves with chemical treated mesh-covered windows to quantify attraction of A. aegypti mosquitoes to the human hand without exposing the hand to mosquito bites or skin to contact with test chemicals.

[11] = test system: cpA neuron; assay: Ethyl pyruvate overlaid on foot odor stimulus, cpA response; type: cell-based, Aedes aegypti; conditions: presented together, 1-s 10^−2 on 2-s foot odor
From the text: FIG. 4b depicts representative trace and mean response when a 1-s stimulus of ethyl pyruvate (10^−2) is overlaid on a 2-s stimulus of foot odor (mixed beads from Person 1 and Person 2), where n=6.
The cpA inhibitor ethyl pyruvate was selected for testing since it is listed as a GRAS compound, is approved as a flavor agent in food, and has a pleasant smell (fruity, sweet, rum, caramel) (Table 3 above).

2-ethyl-5(6)-methylpyrazine
Activation (spikes s^−1) [1]: 14.0 spikes s^−1
% Inhibition [2]: −2.0%

c1cn[nH]c1 [1H-pyrazole]
Activation (spikes s^−1) [1]: 3.5 spikes s^−1
% Inhibition [2]: 4.9%

CC(O)C(=O)O (stereo not shown) [2-hydroxypropanoic acid]
Activation (spikes s^−1) [1]: −1.0 spikes s^−1
catch vs control traps ([3]; 10% lactic acid bait): did not catch significantly more mosquitoes

CC(C)C=O [2-methylpropanal]
Activation (spikes s^−1) [1]: 29.0 spikes s^−1
% Inhibition [2]: 5.8%

CC(C)CS [2-methylpropane-1-thiol]
Activation (spikes s^−1) [1]: 37.0 spikes s^−1
% Inhibition [2]: −2.9%

CC(=O)C=O [2-oxopropanal]
Activation (spikes s^−1) [1]: −2.0 spikes s^−1
% Inhibition [2]: −33.6%

C/C=C(\C)C=O [(E)-2-methylbut-2-enal]
Activation (spikes s^−1) [1]: 59.5 spikes s^−1
duration of sustained firing of cpA ([4]; after 3-s exposure): at least 5.5 min
sustained firing of cpA ([4]; after 3-s exposure (10^−1)): ~45 spikes s^−1
cpA responses to 1-s pulses of 0.15% CO2 relative to controls ([4]; during sustained firing period): significantly reduced

CCCC(=O)O [butanoic acid]
inhibition of the CO2 receptor [5]: strongest known inhibitors

CCCC=O [butyraldehyde]
inhibition of the CO2 receptor [5]: strongest known inhibitors

CCCC(=O)Cl [butyryl chloride]
proportion of mosquitoes that initiated upwind flight from release cage ([6]; after pre-exposure (cpA-off)): greatly reduced
proportion of mosquitoes that landed on human odor beads ([6]; after pre-exposure, 5-min assay): substantially reduced
summed responses of antennal neurons to panel of skin odorants (EAG) ([7]; after treatment): unaffected
summed response of antennal neurons to foot odor (EAG) ([7]; with or without treatment): not statistically different
ability or preference for resting at top of cage, warm moist stimulus [8]: did not impair
cpA subsequent responses to 1% CO2 ([9]; 3-min exposure to 10^−2 volatiles, tested ~5-20 min after exposure): completely abolished
cpA responses to activating skin odorants ([9]; after 3-min pre-exposure): substantially reduced
time to recovery of cpA to control levels after treatment ([9]; after 3-min pre-exposure): 12 to 24 h
odor-evoked responses of cpB and cpC neurons ([9]; after treatment, selectivity for cpA): not reduced
cpA firing in response to subsequent CO2 stimuli ([9]; single puff of 1% butyryl chloride): inhibits cpA from firing
cpA response to foot odor collected on beads ([9]; tested ~5-20 min after exposure): completely lost

CCOC(=O)C(C)=O [ethyl 2-oxopropanoate]
Activation (spikes s^−1) [1]: −63.0 spikes s^−1
number of times mosquitoes landed on mesh over human hand [10]: substantially reduced
inhibition of cpA activity ([2]; overlaid on 0.15% CO2): strongly inhibited
catch of CO2-baited trap also dispensing odorant vs control CO2-baited trap ([3]; pure compound, ~1.7 mmol/hr): significantly fewer mosquitoes
response of cpA neuron to human foot odor [11]: completely eliminates
